Source: PubChem BioAssay (NCI)
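Five compound concentrations were applied to cells in 96-well plates for 48 hours; endpoints were derived by simple linear interpolation of the resulting dose-response curve. GI50 is the concentration that inhibits growth by half. The concentration for full growth arrest is given as TGI.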

Columns and labels:
Test in all cases: inhibition of tumour cell growth, NCI panel, 48 h
OVCAR-8 ovarian = system: OVCAR-8 ovarian
OVCAR-4 ovarian = system: OVCAR-4 ovarian
MOLT-4 leukemia = system: MOLT-4 leukemia
OVCAR-5 ovarian = system: OVCAR-5 ovarian
SK-OV-3 ovarian = system: SK-OV-3 ovarian
HL-60(TB) leukemia = system: HL-60(TB) leukemia
U251 CNS = system: U251 CNS
TK-10 renal = system: TK-10 renal
NCI/ADR-RES ovarian = system: NCI/ADR-RES ovarian

SMILES	TGI (OVCAR-8 ovarian) [µM]	TGI (OVCAR-4 ovarian) [µM]	TGI (MOLT-4 leukemia) [µM]	TGI (OVCAR-5 ovarian) [µM]	TGI (SK-OV-3 ovarian) [µM]	TGI (HL-60(TB) leukemia) [µM]	TGI (U251 CNS) [µM]	TGI (TK-10 renal) [µM]	TGI (NCI/ADR-RES ovarian) [µM]	GI50 (NCI/ADR-RES ovarian) [µM]	GI50 (OVCAR-8 ovarian) [µM]	GI50 (OVCAR-4 ovarian) [µM]	GI50 (MOLT-4 leukemia) [µM]	GI50 (OVCAR-5 ovarian) [µM]	GI50 (SK-OV-3 ovarian) [µM]	GI50 (HL-60(TB) leukemia) [µM]	GI50 (U251 CNS) [µM]	GI50 (TK-10 renal) [µM]
CCOC(=O)/C(=C\c1ccccc1)C(=O)O	> 100	> 100	> 100	> 100	> 100	> 100	> 100	–	–	–	–	–	–	–	–	–	–	–
O=C(O)CCSC(=O)Nc1ccc([N+](=O)[O-])cc1	> 100	> 100	> 100	–	–	> 100	> 100	> 100	–	–	–	–	–	–	–	–	–	–
COc1ccc(NC(=O)CC(=O)N/N=C/c2ccc(N(CCC#N)S(C)(=O)=O)cc2)cc1	> 100	> 100	> 100	> 100	> 100	–	> 100	> 100	–	–	–	–	–	–	–	–	–	–
CCOC(=S)SSSC(=S)OCC	32.3	–	94.7	86.6	> 100	> 100	> 100	> 100	> 100	–	–	–	–	–	–	–	–	–
COc1cc(Nc2nc3ccccc3nc2-c2cccs2)cc(OC)c1OC	> 10	–	> 100	> 100	> 100	> 100	> 10	> 100	–	–	–	–	–	–	–	–	–	–
O=[N+]([O-])c1ccc(C=NC2CCCCC2)cc1	> 100	> 100	> 100	> 100	> 100	> 100	> 100	> 100	–	–	–	–	–	–	–	–	–	–
COc1cc(C(=O)CBr)c(OC)cc1C	> 100	–	> 100	> 100	> 100	> 100	> 100	> 100	> 100	–	–	–	–	–	–	–	–	–
NC(=O)COC(=O)c1c(Cl)nc2sccn12	> 100	> 100	> 100	> 100	> 100	> 81.8	> 100	> 100	–	–	–	–	–	–	–	–	–	–
O=C(Nc1ccc(-c2nc(N3CCOCC3)c3cccn3n2)cc1)Nc1cccnc1	> 100	1.27	6.8	> 100	0.596	> 100	> 100	–	6.27	0.393	0.0491	0.118	0.23	0.071	0.0987	0.359	0.18	–
CCN(CC)C(c1ccc(N(C)C)cc1)C(c1ccc(N(C)C)cc1)N(CC)CC (centres undefined)	> 73	> 73	> 73	> 73	> 73	38.3	> 73	> 73	–	–	–	–	–	–	–	–	–	–
O=C(CC1C(=O)NN(c2ccc(Br)cc2)C1=O)c1cc(O)ccc1O (centres undefined)	> 50	> 50	> 50	> 50	–	> 50	36	> 50	> 50	19.6	18.4	30.6	> 50	34.7	–	23.5	14.2	15.5
